Test results from ChEMBL document CHEMBL1124950, “Synthesis and cardiotonic activity of novel biimidazoles” (J Med Chem, 1990).
The source made the active and inactive calls. The rule behind the calls is not given here.

Tests used:
Rattus norvegicus [1] = assay: 25% increase in left ventricular (dP/dtmax) after iv administration in anesthetized rat; Not active at 3 mg/kg; type: functional, organism-based; set-up: dose 3 mg/kg; conditions: Heart left ventricle
Canis familiaris [2] = assay: Peak percent change in contractile force produced by the administration of 1 mg/kg intravenously in anesthetized dog; type: functional, Canis lupus familiaris; conditions: route intravenous
Canis familiaris [3] = assay: Peak percent change in contractile force produced by the administration of 1 mg/kg intravenously in anesthetized dog; Not active; conditions: Canis lupus familiaris
Rattus norvegicus [4] = assay: 25% increase in left ventricular contractility (dP/dtmax) on iv administration in anesthetized rat; Not active at 3 mg/kg; type: functional, organism-based; set-up: dose 3 mg/kg; conditions: Heart left ventricle
Canis familiaris [5] = assay: Peak percent change in contractile force produced by 1 mg/kg administered intravenously in anesthetized dog; type: functional, Canis lupus familiaris; conditions: route intravenous
Phosphodiesterase 4 [6] = target: T1, Phosphodiesterase 4 (Homo sapiens, UniProt P27815+Q08499+Q07343+Q08493); assay: Inhibition of canine kidney Phosphodiesterase 4 at 150 uM; conditions: Canis lupus familiaris, target entry is the homologue from another species
Rattus norvegicus [7] = assay: 25% increase in left ventricular contractility (dP/dtmax) on iv administration in anesthetized rat; type: functional; conditions: Heart left ventricle
Canis familiaris [8] = assay: Inotropic effect in anesthetized dog; type: functional; conditions: Canis lupus familiaris
Canis familiaris [9] = assay: Peak percent change in contractile force produced after iv administration at 0.3 mg/kg in ansthetetized dog; type: functional, Canis lupus familiaris
Canis familiaris [10] = assay: 25% increase in left ventricular contractility (dP/dtmax) in anesthetized dog on iv administration; type: functional; conditions: Canis lupus familiaris, Heart left ventricle
Rattus norvegicus [11] = assay: 25% increase in left ventricular contractility (dP/dtmax) on iv administration in anesthetized rat; not active; type: functional, organism-based; conditions: Heart left ventricle
Rattus norvegicus [12] = assay: 25% increase in left ventricular contractility (dP/dtmax) on iv administration in anesthetized rat; Not active; type: functional, organism-based; conditions: Heart left ventricle
Rattus norvegicus [13] = assay: Peak percent change in contractile force produced by the administration of 1 mg/kg intravenously in ansthetetized rat; type: functional; conditions: route intravenous
Canis lupus familiaris = assay: 25% increase in left ventricular contractility (dP/dtmax) after iv administration in anesthetized dog; conditions: Heart left ventricle
Canis familiaris [14] = assay: Peak percent change in contractile force produced by the administration of 1 mg/kg intravenously in anesthetized dog; not active; type: functional, organism-based; set-up: dose 1 mg/kg; conditions: Canis lupus familiaris; at 1 mg/kg
Canis familiaris [15] = assay: 25% increase in left ventricular contractility (dP/dtmax) after iv administration in anesthetized dog; Not active; type: functional; conditions: Canis lupus familiaris, Heart left ventricle
Rattus norvegicus [16] = assay: 25% increase in left ventricular contractility (dP/dtmax) after iv administration in anesthetized rat; type: functional; conditions: Heart left ventricle
Canis familiaris [17] = assay: Peak percent change in contractile force produced after iv administration at 0.3 mg/kg in anesthetized dog; type: functional, Canis lupus familiaris
Phosphodiesterase 4 [18] = target: T1, Phosphodiesterase 4; assay: (§1) Inhibition of canine kidney Phosphodiesterase 4; type: protein assay; conditions: Canis lupus familiaris; target entry is the homologue from another species; concentration not given here
Canis familiaris [19] = assay: Peak percent change in contractile force produced after iv administration at 1 mg/kg in anesthetized dog
Canis familiaris [20] = assay: Increased heart rate in conscious dogs on oral administration at 10 mg/kg; type: functional, Canis lupus familiaris
Phosphodiesterase 4 [21] = target: T1, Phosphodiesterase 4; assay: as §1; type: protein assay, Canis lupus familiaris; conditions: target entry is the homologue from another species
Canis familiaris [22] = assay: Inotropic activity in anesthetized dog; type: functional; conditions: Canis lupus familiaris
Phosphodiesterase 4 [23] = target: T1, Phosphodiesterase 4; assay: Inhibition of canine heart Phosphodiesterase 4; type: protein assay, Canis lupus familiaris; conditions: target entry is the homologue from another species
Canis familiaris [24] = assay: 25% increase in left ventricular contractility (dP/dtmax) on iv administration in anesthetized dog; type: functional; conditions: Canis lupus familiaris, Heart left ventricle

O=Cc1c[nH]c(-c2nc(C=O)c[nH]2)n1
ED25 (Rattus norvegicus [1]): inactive

Cn1c(Cl)cnc1-c1nc(C#N)c[nH]1
Change (Canis familiaris [2]): 11%

CN(C)Cc1ccc(-c2nc(C#N)c[nH]2)o1
Change (Canis familiaris [3]): inactive

C[Si](C)(C)CCOCn1ccnc1-c1nccn1COCC[Si](C)(C)C
ED25 (Rattus norvegicus [4]): inactive

FC(F)(F)c1c[nH]c(-c2nc(Br)c[nH]2)n1
ED25 (Rattus norvegicus [1]): inactive

N#Cc1c[nH]c(-c2nc(Cl)c[nH]2)n1
Change (Canis familiaris [5]): 95%

CSc1ccc(C(=O)c2[nH]c(=O)[nH]c2C)cc1 [ENOXIMONE]
inhibition (Phosphodiesterase 4 [6]): 34% | Change (Canis familiaris [2]): 73% | ED25 (Rattus norvegicus [7]): 1.4 mg/kg | ED25 (Canis familiaris [8]): 0.46 mg/kg

Cc1[nH]c(=O)c(C#N)cc1-c1ccncc1 [MILRINONE]
Change (Canis familiaris [2]): 52% | ED25 (Rattus norvegicus [7]): 0.3 mg/kg | Change (Canis familiaris [9]): 110% | ED25 (Canis familiaris [8]): 0.06 mg/kg

N#Cc1c[nH]c(-c2nc(C(F)(F)F)c[nH]2)n1
ED25 (Canis familiaris [10]): 0.33 mg/kg

N#Cc1c[nH]c(-c2cccnc2)n1
ED25 (Rattus norvegicus [11]): inactive | Change (Canis familiaris [2]): 31%

N#Cc1c[nH]c(-c2c[nH]cn2)n1
Change (Canis familiaris [2]): 25%

N#Cc1c[nH]c(-c2nc(C#N)c[nH]2)n1
ED25 (Canis familiaris [10]): 0.18 mg/kg

C[S+]([O-])c1c[nH]c(-c2ncc[nH]2)n1 (configuration not stated)
Change (Canis familiaris [2]): 1%

O=Cc1c[nH]c(-c2ncc[nH]2)n1
ED25 (Rattus norvegicus [1]): inactive

c1c[nH]c(-c2nc(-c3nn[nH]n3)c[nH]2)n1
ED25 (Rattus norvegicus [11]): inactive | Change (Canis familiaris [2]): 0%

OCc1c[nH]c(-c2ncc[nH]2)n1
Change (Canis familiaris [2]): 0%

FC(F)(F)c1c[nH]c(-c2ncc[nH]2)n1
ED25 (Rattus norvegicus [12]): inactive

Cn1ccnc1-c1ncc(C#N)n1C
Change (Rattus norvegicus [13]): 13%

Cn1cc(C#N)nc1-c1ncc[nH]1
ED25 (Canis familiaris [10]): 0.17 mg/kg

N#Cc1c[nH]c(-c2csc(NC(=N)N)n2)n1
Change (Canis familiaris [3]): inactive

CSc1c[nH]c(-c2ncc[nH]2)n1
Change (Canis familiaris [2]): 4%

N#Cc1c[nH]c(-c2nc(Br)c[nH]2)n1
ED25 (Canis lupus familiaris): 0.2 mg/kg

Clc1c[nH]c(-c2ncc[nH]2)n1
ED25 (Rattus norvegicus [1]): inactive

NCc1c[nH]c(-c2ncc[nH]2)n1
ED25 (Rattus norvegicus [11]): inactive

N#Cc1c[nH]c(-c2ccc(Br)s2)n1
ED25 (Rattus norvegicus [11]): inactive

NC(=O)c1c[nH]c(-c2ncc[nH]2)n1
ED25 (Rattus norvegicus [11]): inactive

Cc1c[nH]c(-c2ncc[nH]2)n1
ED25 (Rattus norvegicus [11]): inactive

N#Cc1c[nH]c(-c2cn[nH]c2)n1
ED25 (Rattus norvegicus [11]): inactive | Change (Canis familiaris [14]): inactive

Cc1c[nH]c(-c2nc(C#N)c[nH]2)n1
ED25 (Canis familiaris [15]): 0.63 mg/kg

FC(F)(F)c1c[nH]c(-c2c[nH]cn2)n1
Change (Canis familiaris [2]): 0%

N#Cc1c[nH]c(-c2nccn2-c2ccccc2)n1
Change (Canis familiaris [2]): 0%

Brc1c[nH]c(-c2ncc[nH]2)n1
ED25 (Rattus norvegicus [16]): 5.5 mg/kg

Cc1ccsc1-c1nc(C#N)c[nH]1
ED25 (Rattus norvegicus [11]): inactive

N#Cc1c[nH]c(-c2ccc(-n3ccnc3)cc2)n1
Change (Canis familiaris [2]): 17%

N#Cc1c[nH]c(-c2cccs2)n1
ED25 (Rattus norvegicus [11]): inactive

N#Cc1c[nH]c(-c2ccc(-c3nc(C#N)c[nH]3)cc2)n1
Change (Canis familiaris [2]): 8%

COc1ccc(-c2c[nH]c(-c3nc(C#N)c[nH]3)n2)cc1
Change (Canis familiaris [2]): 106% | ED25 (Canis familiaris [10]): 0.36 mg/kg

Brc1c[nH]c(-c2nc(Br)c[nH]2)n1
ED25 (Rattus norvegicus [1]): inactive

C[C@@H]1C(=O)NC2=Nc3cccc(Cl)c3CN21 [QUAZINONE]
Change (Canis familiaris [17]): 47%

N#Cc1c[nH]c(-c2nc(Br)c(Br)[nH]2)n1
Change (Canis familiaris [5]): 96%

Nc1cc(-c2ccncc2)c[nH]c1=O [INAMRINONE]
inhibition (Phosphodiesterase 4 [18]): 24% | Change (Canis familiaris [9]): 19%

N#Cc1c[nH]c(-c2nc(-c3ccc(C(F)(F)F)cc3)c[nH]2)n1
ED25 (Canis familiaris [10]): 0.26 mg/kg

COC(=O)c1c[nH]c(-c2ncc[nH]2)n1
ED25 (Rattus norvegicus [11]): inactive

C=Cn1ccnc1-c1nc(C#N)c[nH]1
Change (Canis familiaris [2]): 41%

N#Cc1c[nH]c(-c2ncc[nH]2)n1
Change (Canis familiaris [19]): 60% | Increase in heart rate (Canis familiaris [20]): 45 beats min-1 | IC50 (Phosphodiesterase 4 [21]): 339 µM | ED25 (Canis familiaris [22]): 0.16 mg/kg | IC50 (Phosphodiesterase 4 [23]): 36.7 µM

N#Cc1c[nH]c(-c2ccco2)n1
ED25 (Rattus norvegicus [11]): inactive

Cn1c(C#N)cnc1-c1ncc[nH]1
Change (Canis familiaris [2]): 3%

N#Cc1c[nH]c(-c2nc(-c3ccccc3)c[nH]2)n1
ED25 (Canis familiaris [24]): 0.89 mg/kg

Clc1c[nH]c(-c2nc(Cl)c[nH]2)n1
ED25 (Rattus norvegicus [16]): 0.7 mg/kg

CCn1ccnc1-c1nc(C#N)c[nH]1
Change (Canis familiaris [2]): 41%

c1c[nH]c(-c2ncc[nH]2)n1
ED25 (Rattus norvegicus [7]): 0.24 mg/kg

O=C(O)c1c[nH]c(-c2ncc[nH]2)n1
ED25 (Rattus norvegicus [11]): inactive

N#Cc1c[nH]c(-c2nccn2Cc2ccccc2)n1
Change (Canis familiaris [2]): 2%

N#Cc1c[nH]c(-c2cc[nH]n2)n1
ED25 (Rattus norvegicus [11]): inactive | Change (Canis familiaris [2]): -4%

Cn1ccnc1-c1nc(C#N)c[nH]1
Change (Canis familiaris [2]): 29%

N#Cc1[nH]cnc1-c1ncc[nH]1
Change (Canis familiaris [2]): 0%
